From patent publication US7132279B2, “Epidermal melanocyte culture formulations” (New York Eye & Ear Infirmary, priority 2003, dated 2006)
Where no end group is shown, it is not given here.

Key:
epidermal melanocytes [1] = assay: Cell growth of cultured epidermal melanocytes by cell counting (6 days); assay type: cell-based, human
Procedure: (§1) Three deleted media were used for the study, (i) growth factor-deleted medium, (ii) cAMP-elevating agent deleted medium and (iii) serum-depleted medium. Various testing substances were added to the three deleted media above. These substances include bFGF, HGF, epinephrine and α-MSH. The deleted medium without the test substance was the negative control and the complete medium is the positive control.
Human skin specimens containing epidermis were obtained from a donor. The specimens were incubated in 0.25% trypsin solution (GIBCO, Carlsbad, Calif.) for 15 minutes at 37° C., followed by a 10 minute incubation with 0.2% EDTA (Sigma, St. Louis, Mo.) solution. The epidermal sheets were gently treated with forceps to dissociate the epidermal cells and to yield an epidermal cell suspension. The epidermal cells were centrifuged and seeded into a 25 cm^2 flask with the culture medium. The flask was incubated at 37° C. in an atmosphere of 95% humidified air and 5% CO2. Geneticin (Sigma, St. Louis, Mo.) was added (100 μg/ml) for three days to eliminate keratinocytes and fibroblasts. The medium was changed every three days. The melanocytes typically reached confluence in two weeks. After reaching confluence, the melanocytes were detached using trypsin-EDTA solution, centrifuged, diluted and seeded for subculture. At the time of transplantation, the melanocytes were detached using trypsin-EDTA solution, centrifuged and resuspended with F12 medium.
Cell counting was used to evaluate the effect of the test substance on growth of epidermal melanocytes. Epidermal melanocytes were plated in 6-well plates at a density of 1×10^5 cells per well with medium. After 24 hours, medium was replaced by the testing media. The media was changed every three days. After six days, the cells were detached with trypsin-EDTA solution and neutralized with culture medium with 10% serum. The cell suspension was centrifuged and the pellet was resuspended in 1 ml F12 medium, 20 μl of the cell suspension was collected into the tip of a Pasteur pipette and transferred to a hemocytometer. The hemocytometer was observed under an optical microscope. Cells falling in four […] areas bounded by three parallel lines were counted. The cell number was obtained using Formula I shown below (Freshney, 1987, Culture of Animal Cells. Wiley-Liss, Inc., New York, 2nd edition). The average of four counts was calculated. Triplicate samples were assayed in all experiments. c=n×10^4 FORMULA I • where c=concentration (cells/ml), n=number of cells counted.

epidermal melanocytes [2] = assay: Melanin production of cultured epidermal melanocytes (optical density at 475 nm); assay type: cell-based, human; conditions: 6 days
Procedure: as §1
Melanocytes cultured as described above were detached by trypsin-EDTA solution and counted in a hemocytometer. The cell suspensions were centrifuged and the pellet was resuspended in 1N NaOH. Melanin concentration was determined by measurement of optical density at 475 nm by a spectrophotometer and compared with a standard curve obtained using synthetic melanin (Sigma, St. Louis, Mo.). Melanin content is expressed as μg/culture or ng/cell (Hu et al., 1995, Invest. Ophthalmol Vis Sci 36:931).

epidermal melanocytes [3] = assay: Migration of cultured epidermal melanocytes in Boyden chambers; assay type: cell-based, human; conditions: for Migration of epidermal melanocytes: cAMP deleted medium
Procedure: Cell migration experiments were performed on early passages of cells in 48-well Boyden chambers (Neuroprobe, Bethesda, Md.). Cultured epidermal melanocytes were dissociated with 0.05% trypsin-EDTA (Sigma, St. Louis, Mo.) at 37° C. for 2–3 minutes, neutralized by culture medium with 10% FBS. The cells were centrifuged and resuspended in culture medium. The lower half of the Boyden chambers contained culture medium with or without tested substances. An 8 μm pore cellulose nitrate filter separated the upper and lower wells. Epidermal melanocytes (3×10^4) suspended in 50 μl culture medium (with or without tested substances) were added to the upper wells. The chamber was incubated at 37° C. in a humidified atmosphere at 95% air and 5% CO2. After 6 hours, the filter was removed from the chamber, fixed in 95% ethanol for 5 minutes, and stained with hematoxylin for 1 minute. The number of cells migrating through the filter and attached to the lower surface of the filter was counted (Doerr et al., 1996, J Biol Chem 271:2443; Verdoorn et al., 1986, Arch Ophtalmol 104:1216). Triplicate samples were assayed in all experiments.

ocular melanocytes = conditions: Hu, 2000; cited from earlier work
epidermal melanocytes [4] = conditions: Halaban et al., 1988; cholera toxin in the media; cited from earlier work
[5] = cAMP-elevating agents-deleted medium, epinephrine 1-3,000 ng/ml, α-MSH 1-1,000 ng/ml
[6] = growth factor-deleted medium, 1-1,000 ng/ml

Compound	Cell growth (cell number) versus control (epidermal melanocytes [1]; [5])	Melanin content/well versus control (epidermal melanocytes [2]; [5])	Migration of epidermal melanocytes (epidermal melanocytes [3])	Cell growth (cell number) versus control (epidermal melanocytes [1]; [6])	Melanin content/well versus control (epidermal melanocytes [2]; [6])	Migration cell number versus control (epidermal melanocytes [3]; 1-1,000 ng/ml, 6 hours)	Growth of cultured ocular melanocytes (ocular melanocytes)	Growth of cultured epidermal melanocytes (epidermal melanocytes [4])
CNC[C@H](O)c1ccc(O)c(O)c1 [epinephrine, (L)-Epinephrine bitartrate]	dose dependent stimulation of cell growth	significantly greater than that of the controls	stimulated the growth, melanogenesis and migration	–	–	–	–	–
HGF: hepatocyte growth factor, pleiotrophic growth factor (PeproTech)	–	–	–	dose dependent stimulation of cell growth	significantly greater than that of the controls	dose dependent stimulation of migration	stimulates growth of cultured ocular melanocytes	–
bFGF: basic fibroblast growth factor (PeproTech)	–	–	–	dose dependent stimulation of cell growth	did not show any significant influence on melanin content	–	–	–
α-MSH: tridecapeptide with a sequence identical to the first 13 amino acids of adrenocorticotropin (ACTH) (SYSMEHFRWGKPV; ends and bridges not checked; UniProt P01189 138-150, looked up)	dose dependent stimulation of cell growth	significantly greater than that of the controls	stimulated the growth, melanogenesis and migration	–	–	–	–	failed to stimulate growth
